Experimental data reported in patent US11208400B2, “Substituted 6-(1H-pyrazol-1-yl)pyrimidin-4-amine derivatives and uses thereof” (Bayer Aktiengesellschaft, priority 2016, dated 2021).

Molecular target: T1, human Npt2a (Homo sapiens, UniProt Q06495)
T1 construct: expressed in transfected cells
T1 sequence (Q06495 1-639): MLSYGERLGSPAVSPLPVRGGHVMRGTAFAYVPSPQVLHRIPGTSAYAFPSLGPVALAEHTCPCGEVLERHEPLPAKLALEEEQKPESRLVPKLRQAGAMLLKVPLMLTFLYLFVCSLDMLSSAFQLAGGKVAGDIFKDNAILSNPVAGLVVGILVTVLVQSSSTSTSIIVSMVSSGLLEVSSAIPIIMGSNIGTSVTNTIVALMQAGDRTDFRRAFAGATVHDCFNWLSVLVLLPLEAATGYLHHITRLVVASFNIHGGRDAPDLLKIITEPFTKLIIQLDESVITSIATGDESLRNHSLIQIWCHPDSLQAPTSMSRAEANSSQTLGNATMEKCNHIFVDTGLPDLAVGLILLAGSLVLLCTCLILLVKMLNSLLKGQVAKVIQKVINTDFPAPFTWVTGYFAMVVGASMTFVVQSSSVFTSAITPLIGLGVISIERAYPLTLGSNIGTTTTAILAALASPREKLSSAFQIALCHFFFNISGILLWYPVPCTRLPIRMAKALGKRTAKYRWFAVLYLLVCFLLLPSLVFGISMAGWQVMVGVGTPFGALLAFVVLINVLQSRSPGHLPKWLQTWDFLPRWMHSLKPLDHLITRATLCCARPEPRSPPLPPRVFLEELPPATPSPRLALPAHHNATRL
Assay: Npt2a activity cell based assay, membrane potential dye, CHO T-REx hNpt2a cells
Conditions: doxycycline-induced, depolarization by sodium phosphate influx, average or median values if tested more than once
Procedure, shortened: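 Cells were doxycycline-induced CHO T-REx hNpt2a, dye-loaded and pretreated 5 min at RT with 1 nM–50 μM compound in Na-free pH 7.4 buffer. IC50 was fit to the post/pre-trigger fluorescence ratio.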

Compared with `Cc1cc(C)n(-c2cc(Nc3[nH]nc(-c4ccc(F)cc4)c3Cl)ncn2)n1` [Example 14, N-[4-chloro-3-(4-fluorophenyl)-1H-pyrazol-5-yl]-6-(3,5-dimethyl-1H-pyrazol-1-yl)pyrimidin-4-amine], `Cc1cc(C)n(-c2cc(Nc3[nH]nc(-c4ccc(F)cc4)c3CC(F)(F)F)ncn2)n1` [Example 36, 6-(3,5-dimethyl-1H-pyrazol-1-yl)-N-[3-(4-fluorophenyl)-4-(2,2,2-trifluoroethyl)-1H-pyrazol-5-yl]pyrimidin-4-amine] is 24-fold higher in IC50: 0.07 µM for the first, 1.7 µM for the second. The first is the more potent here.

First: CCc1c(-c2ccc(F)cc2)nn(C)c1Nc1cc(-n2nc(C)c3cnccc32)ncn1 [Example 230, N-[4-ethyl-3-(4-fluorophenyl)-1-methyl-1H-pyrazol-5-yl]-6-(3-methyl-1H-pyrazolo[4,3-c]pyridin-1-yl)pyrimidin-4-amine]
Second: Cc1cc(C)n(-c2cc(Nc3c(C#N)c(-c4ccc(F)cc4)nn3C)ncn2)n1 [Example 24, 5-{[6-(3,5-dimethyl-1H-pyrazol-1-yl)pyrimidin-4-yl]amino}-3-(4-fluorophenyl)-1-methyl-1H-pyrazole-4-carbonitrile]
The IC50 of the first is 2.7-fold higher: 0.83 µM for the first, 0.31 µM for the second. The second is the more potent here.

Going from `CCOC(=O)c1c(C)nn(-c2cc(Nc3nn(C)c(-c4ccc(F)cc4)c3C)ncn2)c1C` [Example 61, ethyl 1-(6-{[5-(4-fluorophenyl)-1,4-dimethyl-1H-pyrazol-3-yl]amino}pyrimidin-4-yl)-3,5-dimethyl-1H-pyrazole-4-carboxylate] to `CCOC(=O)c1c(C)nn(-c2cc(Nc3c(C)nn(-c4ccc(C#N)cc4)c3C)ncn2)c1C` [Example 219, ethyl 1-(6-{[1-(4-cyanophenyl)-3,5-dimethyl-1H-pyrazol-4-yl]amino}pyrimidin-4-yl)-3,5-dimethyl-1H-pyrazole-4-carboxylate], the IC50 falls from 0.0044 µM to under 0.0016 µM. The second is the more potent here.

Compared with `Cc1cc(C(C)(C)O)n(-c2cc(Nc3c(C)c(-c4ccc(C#N)cc4)nn3CC3CC3)ncn2)n1` [Example 263, 4-[1-(cyclopropylmethyl)-5-({6-[5-(2-hydroxypropan-2-yl)-3-methyl-1H-pyrazol-1-yl]pyrimidin-4-yl}amino)-4-methyl-1H-pyrazol-3-yl]benzonitrile], `Cc1cc(C(C)(C)O)n(-c2cc(Nc3c(C)c(-c4ccc(C(F)(F)F)cc4)nn3CC3CC3)ncn2)n1` [Example 293, 2-{1-[6-({1-(cyclopropylmethyl)-4-methyl-3-[4-(trifluoromethyl)phenyl]-1H-pyrazol-5-yl}amino)pyrimidin-4-yl]-3-methyl-1H-pyrazol-5-yl}propan-2-ol] is 5.1-fold higher in IC50: 0.111 µM for the first, 0.57 µM for the second. The first is the more potent here.

First: Cc1nn(-c2cc(Nc3c(C)c(-c4ccc(C#N)cc4)nn3CC3CC3)ncn2)c(C)c1C(C)(C)O [Example 165, 4-[1-(cyclopropylmethyl)-5-({6-[4-(2-hydroxypropan-2-yl)-3,5-dimethyl-1H-pyrazol-1-yl]pyrimidin-4-yl}amino)-4-methyl-1H-pyrazol-3-yl]benzonitrile]
Second: Cc1nn(-c2cc(Nc3c(C)c(-c4ccc(C(F)(F)F)cc4)nn3CC3CC3)ncn2)c(C)c1C(C)(C)O [Example 292, 2-{1-[6-({1-(cyclopropylmethyl)-4-methyl-3-[4-(trifluoromethyl)phenyl]-1H-pyrazol-5-yl}amino)pyrimidin-4-yl]-3,5-dimethyl-1H-pyrazol-4-yl}propan-2-ol]
The IC50 of the first is 80-fold lower: 0.003 µM for the first, 0.24 µM for the second. The first is the more potent here.

Compared with `COCCn1nc(-c2ccc(C(F)F)cc2)c(C)c1Nc1cc(-n2nc(C)c(C(=O)N(C)C)c2C)ncn1` [Example 558, 1-[6-({3-[4-(difluoromethyl)phenyl]-1-(2-methoxyethyl)-4-methyl-1H-pyrazol-5-yl}amino)pyrimidin-4-yl]-N,N,3,5-tetramethyl-1H-pyrazole-4-carboxamide], `Cc1nn(-c2cc(Nc3c(C)c(-c4ccc(C(F)F)cc4)nn3CC3CC3)ncn2)c(C)c1C(O)C1CC1` (single isomer, unassigned) [Example 496, Cyclopropyl {1-[6-({1-(cyclopropylmethyl)-3-[4-(difluoromethyl)phenyl]-4-methyl-1H-pyrazol-5-yl}amino)pyrimidin-4-yl]-3,5-dimethyl-1H-pyrazol-4-yl}methanol] is 2.9-fold higher in IC50: 0.08 µM for the first, 0.23 µM for the second. The first is the more potent here.

Compared with `Cc1nn(-c2cc(Nc3c(C)c(-c4ccc(F)cc4)nn3CC3CC3)ncn2)c(C)c1[S+](C)[O-]` (centres unmarked) [Example 401, N-[1-(cyclopropylmethyl)-3-(4-fluorophenyl)-4-methyl-1H-pyrazol-5-yl]-6-[3,5-dimethyl-4-(methylsulfinyl)-1H-pyrazol-1-yl]pyrimidin-4-amine], `COC(C)c1c(C)nn(-c2cc(Nc3c(C)c(-c4ccc(F)cc4)nn3CC3CC3)ncn2)c1C` (single isomer, unassigned) [Example 328, N-[1-(cyclopropylmethyl)-3-(4-fluorophenyl)-4-methyl-1H-pyrazol-5-yl]-6-{4-[1-methoxyethyl]-3,5-dimethyl-1H-pyrazol-1-yl}pyrimidin-4-amine] is 350-fold lower in IC50: 1.4 µM for the first, 0.004 µM for the second.

`CCc1c(Nc2cc(-n3cc4c(n3)CCC4)ncn2)n[nH]c1-c1ccc(F)cc1` [Example 20, 6-(5,6-dihydrocyclopenta[c]pyrazol-2(4H)-yl)-N-[4-ethyl-5-(4-fluorophenyl)-1H-pyrazol-3-yl]pyrimidin-4-amine] and `CCc1c(Nc2cc(-n3nc(C)cc3C)ncn2)n[nH]c1-c1ccc(Cl)cc1` [Example 21, N-[5-(4-chlorophenyl)-4-ethyl-1H-pyrazol-3-yl]-6-(3,5-dimethyl-1H-pyrazol-1-yl)pyrimidin-4-amine] are within 1.5-fold of each other in IC50: 0.12 µM for the first, 0.14 µM for the second.

First: Cc1nn(-c2cc(Nc3c(Cl)c(-c4ccc(F)cc4)nn3CC3CC3)ncn2)c(C(F)F)c1Cl [Example 186, N-[4-chloro-1-(cyclopropylmethyl)-3-(4-fluorophenyl)-1H-pyrazol-5-yl]-6-[4-chloro-5-(difluoromethyl)-3-methyl-1H-pyrazol-1-yl]pyrimidin-4-amine]
Second: Cc1nn(-c2cc(Nc3c(C)c(-c4ccc(F)cc4)nn3CC3CC3)ncn2)c(C)c1C(O)C(F)(F)F (single isomer, unassigned) [Example 376, 1-[1-(6-{[1-(cyclopropylmethyl)-3-(4-fluorophenyl)-4-methyl-1H-pyrazol-5-yl]amino}pyrimidin-4-yl)-3,5-dimethyl-1H-pyrazol-4-yl]-2,2,2-trifluoroethanol]
The IC50 of the first is 7.5-fold higher: 0.06 µM for the first, 0.008 µM for the second. The second is the more potent here.

Going from `COC(C)c1c(C)nn(-c2cc(Nc3c(C)c(-c4ccc(C#N)cc4)nn3C)ncn2)c1C` (racemic) [Example 338, (±)-4-{5-[(6-{4-[1-methoxyethyl]-3,5-dimethyl-1H-pyrazol-1-yl}pyrimidin-4-yl)amino]-1,4-dimethyl-1H-pyrazol-3-yl}benzonitrile] to `COc1c(-c2ccc(C#N)cc2)nn(CC2CC2)c1Nc1cc(-n2nc(C)c(C(C)OC)c2C)ncn1` (racemic) [Example 333, (±)-4-{1-(cyclopropylmethyl)-4-methoxy-5-[(6-{4-[1-methoxyethyl]-3,5-dimethyl-1H-pyrazol-1-yl}pyrimidin-4-yl)amino]-1H-pyrazol-3-yl}benzonitrile], the IC50 rises from 0.007 µM to 0.054 µM (7.7-fold).

Going from `Cc1c(-c2ccc(C#N)cc2)nn(CC2CC2)c1Nc1cc(-n2nc(C)c3ncccc32)ncn1` [Example 232, 4-[1-(cyclopropylmethyl)-4-methyl-5-{[6-(3-methyl-1H-pyrazolo[4,3-b]pyridin-1-yl)pyrimidin-4-yl]amino}-1H-pyrazol-3-yl]benzonitrile] to `COc1c(-c2ccc(C#N)cc2)nn(CC2CC2)c1Nc1cc(-n2nc(C)c(C(C)O)c2C)ncn1` (racemic) [Example 331, (±)-4-{1-(cyclopropylmethyl)-5-[(6-{4-[(1S)-1-hydroxyethyl]-3,5-dimethyl-1H-pyrazol-1-yl}pyrimidin-4-yl)amino]-4-methoxy-1H-pyrazol-3-yl}benzonitrile], the IC50 rises from 0.006 µM to 2.8 µM (470-fold).

Compared with `Cc1nn(-c2cc(Nc3c(C)c(-c4ccc(C(F)(F)F)nc4)nn3CC3CC3)ncn2)c(C)c1Cl` [Example 534, 6-(4-chloro-3,5-dimethyl-1H-pyrazol-1-yl)-N-{1-(cyclopropylmethyl)-4-methyl-3-[6-(trifluoromethyl)pyridin-3-yl]-1H-pyrazol-5-yl}pyrimidin-4-amine], `CCc1c(-c2ccc(F)cc2)nn(Cc2nnn(C)n2)c1Nc1cc(-n2nc(C)cc2C)ncn1` [Example 388, 6-(3,5-dimethyl-1H-pyrazol-1-yl)-N-{4-ethyl-3-(4-fluorophenyl)-1-[(2-methyl-2H-tetrazol-5-yl)methyl]-1H-pyrazol-5-yl}pyrimidin-4-amine] is 23-fold lower in IC50: 1.5 µM for the first, 0.064 µM for the second. The second is the more potent here.

Compared with `COc1c(-c2ccc(C#N)cc2)nn(C)c1Nc1cc(-n2nc(C)cc2C)ncn1` [Example 444, 4-(5-{[6-(3,5-dimethyl-1H-pyrazol-1-yl)pyrimidin-4-yl]amino}-4-methoxy-1-methyl-1H-pyrazol-3-yl)benzonitrile], `CCc1c(Nc2cc(-n3nc(CO)cc3C)ncn2)nn(C)c1-c1ccc(F)cc1` [Example 94, [1-(6-{[4-ethyl-5-(4-fluorophenyl)-1-methyl-1H-pyrazol-3-yl]amino}pyrimidin-4-yl)-5-methyl-1H-pyrazol-3-yl]methanol] is 21-fold higher in IC50: 0.12 µM for the first, 2.5 µM for the second.
